Experimental data: paper PMC10364322, “Evaluation of chronic drug-induced electrophysiological and cytotoxic effects using human-induced pluripotent stem cell-derived cardiomyocytes (hiPSC-CMs)” (Frontiers in Pharmacology, 2023)
Where two headings read alike, the source gives them in different places.

System: hiPSC-CMs (iCell-Cardiomyocytes^2)
Summary of the method: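 Spontaneous field potentials and impedance recorded by MEA at 37°C, 5% CO2 in hiPSC-CM monolayers (50 K/well, fibronectin-coated), 5-min baseline before compound; final DMSO 0.1%. Values are percent change from baseline, mean ± SD, compared with DMSO by Wilcoxon-Mann Whitney, interpreted against DMSO tolerance intervals.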

COc1nc(N)nc2c1ncn2[C@@H]1O[C@H](COP(=O)(N[C@@H](C)C(=O)OCC(C)(C)C)Oc2cccc3ccccc23)[C@@H](O)[C@@]1(C)O (stereo partly shown) [BMS-986094]
BR (beating rate), % change from baseline (0.3 µM, 2h): 5±3%
Beating below threshold, number of observations/total well numbers (0.3 µM, 2h): 0/5
Cessation of beating, number of observations/total well numbers (0.3 µM, 2h): 0/5
EAD, number of observations/total well numbers (0.3 µM, 2h): 0/5
FPD (field-potential duration), % change from baseline (0.3 µM, 2h): 0.5±1%
FPDc (field-potential duration corrected by beat-rate), % change from baseline (0.3 µM, 2h): 2.1±1.1%
Flat T-wave-like, number of observations/total well numbers (0.3 µM, 2h): 0/5
BR (beating rate), % change from baseline (0.3 µM, 24h): 8±3%
Beating below threshold, number of observations/total well numbers (0.3 µM, 24h): 0/5
Cessation of beating, number of observations/total well numbers (0.3 µM, 24h): 0/5
EAD, number of observations/total well numbers (0.3 µM, 24h): 0/5
FPD (field-potential duration), % change from baseline (0.3 µM, 24h): -5.3±4.1%
FPDc (field-potential duration corrected by beat-rate), % change from baseline (0.3 µM, 24h): -2.7±3.8%
Flat T-wave-like, number of observations/total well numbers (0.3 µM, 24h): 0/5
BR (beating rate), % change from baseline (0.3 µM, 48h): 14±5%
Beating below threshold, number of observations/total well numbers (0.3 µM, 48h): 0/5
Cessation of beating, number of observations/total well numbers (0.3 µM, 48h): 0/5
EAD, number of observations/total well numbers (0.3 µM, 48h): 0/5
FPD (field-potential duration), % change from baseline (0.3 µM, 48h): -12.4±4.7%
FPDc (field-potential duration corrected by beat-rate), % change from baseline (0.3 µM, 48h): -8.4±4.1%
Flat T-wave-like, number of observations/total well numbers (0.3 µM, 48h): 0/5
BR (beating rate), % change from baseline (0.3 µM, 72h): 22±3 %
Beating below threshold, number of observations/total well numbers (0.3 µM, 72h): 0/5
Cessation of beating, number of observations/total well numbers (0.3 µM, 72h): 0/5
EAD, number of observations/total well numbers (0.3 µM, 72h): 0/5
FPD (field-potential duration), % change from baseline (0.3 µM, 72h): -17.3±3.6 %
FPDc (field-potential duration corrected by beat-rate), % change from baseline (0.3 µM, 72h): -11.6±3.5 %
Flat T-wave-like, number of observations/total well numbers (0.3 µM, 72h): 0/5
BR (beating rate), % change from baseline (0.3 µM, 96h): 30±11 %
Beating below threshold, number of observations/total well numbers (0.3 µM, 96h): 0/5
Cessation of beating, number of observations/total well numbers (0.3 µM, 96h): 0/5
EAD, number of observations/total well numbers (0.3 µM, 96h): 0/5
FPD (field-potential duration), % change from baseline (0.3 µM, 96h): -20.4±2.9 %
FPDc (field-potential duration corrected by beat-rate), % change from baseline (0.3 µM, 96h): -14.3±1.9 %
Flat T-wave-like, number of observations/total well numbers (0.3 µM, 96h): 1/5
BR (beating rate), % change from baseline (1 µM, 2h): 6±2%
Beating below threshold, number of observations/total well numbers (1 µM, 2h): 0/5
Cessation of beating, number of observations/total well numbers (1 µM, 2h): 0/5
EAD, number of observations/total well numbers (1 µM, 2h): 0/5
FPD (field-potential duration), % change from baseline (1 µM, 2h): -3.6±2.3%
FPDc (field-potential duration corrected by beat-rate), % change from baseline (1 µM, 2h): -1.8±2.1%
Flat T-wave-like, number of observations/total well numbers (1 µM, 2h): 1/5
BR (beating rate), % change from baseline (1 µM, 24h): 17±5%
Beating below threshold, number of observations/total well numbers (1 µM, 24h): 0/5
Cessation of beating, number of observations/total well numbers (1 µM, 24h): 0/5
EAD, number of observations/total well numbers (1 µM, 24h): 0/5
FPD (field-potential duration), % change from baseline (1 µM, 24h): -10.7±2.3 %
FPDc (field-potential duration corrected by beat-rate), % change from baseline (1 µM, 24h): -6±2.7%
Flat T-wave-like, number of observations/total well numbers (1 µM, 24h): 0/5
BR (beating rate), % change from baseline (1 µM, 48h): 12±3%
Beating below threshold, number of observations/total well numbers (1 µM, 48h): 0/5
Cessation of beating, number of observations/total well numbers (1 µM, 48h): 0/5
EAD, number of observations/total well numbers (1 µM, 48h): 0/5
FPD (field-potential duration), % change from baseline (1 µM, 48h): -5.8±3 %
FPDc (field-potential duration corrected by beat-rate), % change from baseline (1 µM, 48h): -2.5±2.1 %
Flat T-wave-like, number of observations/total well numbers (1 µM, 48h): 3/5
BR (beating rate), % change from baseline (1 µM, 72h): 17±6 %
Beating below threshold, number of observations/total well numbers (1 µM, 72h): 0/5
Cessation of beating, number of observations/total well numbers (1 µM, 72h): 0/5
EAD, number of observations/total well numbers (1 µM, 72h): 0/5
FPD (field-potential duration), % change from baseline (1 µM, 72h): -7.5±0 %
FPDc (field-potential duration corrected by beat-rate), % change from baseline (1 µM, 72h): -2.3±0%
Flat T-wave-like, number of observations/total well numbers (1 µM, 72h): 4/5
BR (beating rate), % change from baseline (1 µM, 96h): 14±8 %
Beating below threshold, number of observations/total well numbers (1 µM, 96h): 0/5
Cessation of beating, number of observations/total well numbers (1 µM, 96h): 0/5
EAD, number of observations/total well numbers (1 µM, 96h): 0/5
FPD (field-potential duration), % change from baseline (1 µM, 96h): -7.9±0 %
FPDc (field-potential duration corrected by beat-rate), % change from baseline (1 µM, 96h): -5.5±0 %
Flat T-wave-like, number of observations/total well numbers (1 µM, 96h): 4/5
BR (beating rate), % change from baseline (3 µM, 72h): 12±6 %
Beating below threshold, number of observations/total well numbers (3 µM, 72h): 0/5
Cessation of beating, number of observations/total well numbers (3 µM, 72h): 0/5
EAD, number of observations/total well numbers (3 µM, 72h): 0/5
Flat T-wave-like, number of observations/total well numbers (3 µM, 72h): 5/5
BR (beating rate), % change from baseline (3 µM, 96h): 20±12 %
Beating below threshold, number of observations/total well numbers (3 µM, 96h): 0/5
Cessation of beating, number of observations/total well numbers (3 µM, 96h): 1/5
EAD, number of observations/total well numbers (3 µM, 96h): 0/5
Flat T-wave-like, number of observations/total well numbers (3 µM, 96h): 4/5
BR (beating rate), % change from baseline (3 µM, 2h): 7±1%
Beating below threshold, number of observations/total well numbers (3 µM, 2h): 0/5
Cessation of beating, number of observations/total well numbers (3 µM, 2h): 0/5
EAD, number of observations/total well numbers (3 µM, 2h): 0/5
FPD (field-potential duration), % change from baseline (3 µM, 2h): -3.6±1.9%
FPDc (field-potential duration corrected by beat-rate), % change from baseline (3 µM, 2h): -1.6±1.8%
Flat T-wave-like, number of observations/total well numbers (3 µM, 2h): 0/5
BR (beating rate), % change from baseline (3 µM, 24h): 20±3 %
Beating below threshold, number of observations/total well numbers (3 µM, 24h): 0/5
Cessation of beating, number of observations/total well numbers (3 µM, 24h): 0/5
EAD, number of observations/total well numbers (3 µM, 24h): 0/5
FPD (field-potential duration), % change from baseline (3 µM, 24h): -17±4.9 %
FPDc (field-potential duration corrected by beat-rate), % change from baseline (3 µM, 24h): -11.8±5.5 %
Flat T-wave-like, number of observations/total well numbers (3 µM, 24h): 0/5
BR (beating rate), % change from baseline (3 µM, 48h): 13±3%
Beating below threshold, number of observations/total well numbers (3 µM, 48h): 0/5
Cessation of beating, number of observations/total well numbers (3 µM, 48h): 0/5
EAD, number of observations/total well numbers (3 µM, 48h): 0/5
FPD (field-potential duration), % change from baseline (3 µM, 48h): -0.5±0%
FPDc (field-potential duration corrected by beat-rate), % change from baseline (3 µM, 48h): 2.6±0%
Flat T-wave-like, number of observations/total well numbers (3 µM, 48h): 4/5
BR (beating rate), % change from baseline (10 µM, 2h): 4±8%
Beating below threshold, number of observations/total well numbers (10 µM, 2h): 0/5
Cessation of beating, number of observations/total well numbers (10 µM, 2h): 0/5
EAD, number of observations/total well numbers (10 µM, 2h): 0/5
FPD (field-potential duration), % change from baseline (10 µM, 2h): -5.7±2.3%
FPDc (field-potential duration corrected by beat-rate), % change from baseline (10 µM, 2h): -4.4±2.8 %
Flat T-wave-like, number of observations/total well numbers (10 µM, 2h): 0/5
BR (beating rate), % change from baseline (10 µM, 24h): 30±4 %
Beating below threshold, number of observations/total well numbers (10 µM, 24h): 0/5
Cessation of beating, number of observations/total well numbers (10 µM, 24h): 0/5
EAD, number of observations/total well numbers (10 µM, 24h): 0/5
FPD (field-potential duration), % change from baseline (10 µM, 24h): -24.2±3.7 %
FPDc (field-potential duration corrected by beat-rate), % change from baseline (10 µM, 24h): -17.1±3.6 %
Flat T-wave-like, number of observations/total well numbers (10 µM, 24h): 1/5
BR (beating rate), % change from baseline (10 µM, 48h): 24±6 %
Beating below threshold, number of observations/total well numbers (10 µM, 48h): 0/5
Cessation of beating, number of observations/total well numbers (10 µM, 48h): 0/5
EAD, number of observations/total well numbers (10 µM, 48h): 0/5
FPD (field-potential duration), % change from baseline (10 µM, 48h): -10.6±0 %
FPDc (field-potential duration corrected by beat-rate), % change from baseline (10 µM, 48h): -2.4±0 %
Flat T-wave-like, number of observations/total well numbers (10 µM, 48h): 4/5
BR (beating rate), % change from baseline (10 µM, 72h): 32±14 %
Beating below threshold, number of observations/total well numbers (10 µM, 72h): 0/5
Cessation of beating, number of observations/total well numbers (10 µM, 72h): 0/5
EAD, number of observations/total well numbers (10 µM, 72h): 0/5
Flat T-wave-like, number of observations/total well numbers (10 µM, 72h): 5/5
BR (beating rate), % change from baseline (10 µM, 96h): 29±0 %
Beating below threshold, number of observations/total well numbers (10 µM, 96h): 1/5
Cessation of beating, number of observations/total well numbers (10 µM, 96h): 3/5
EAD, number of observations/total well numbers (10 µM, 96h): 0/5
Flat T-wave-like, number of observations/total well numbers (10 µM, 96h): 1/5
T-wave morphology (72 h and 96 h, two highest concentrations (10 and 1 µM)): flattening of the T-wave
